The text below walks through data of US6399782B1, “Benzimidazole inhibitors of fructose 1,6-bisphosphatase” (Metabasis Therapeutics, Inc., priority 1997, dated 2002).

One may read the IC50 as the concentration needed to halve the response being measured. What is called melting point is the temperature of the solid-liquid transition.

Data set [1] in a line: Estimation of the oral bioavailability of prodrugs of phosphonic acids. As to conditions: rat; for % Oral bioavailability: prodrug by oral gavage approximately 20 or 40 mg/kg parent equivalents, urinary recovery of parent vs i.v. parent. It counts as in vivo. On the procedure:
Prodrugs were dissolved in 10% ethanol/90% polyethylene glycol (mw 400) and administered by oral gavage at doses of approximately 20 or 40 mg/kg parent compound equivalents to 6-hour fasted, Sprague Dawley rats (220-240 g). The rats were subsequently placed in metabolic cages and urine was collected for 24 hours. The quantity of parent compound excreted into urine was determined by HPLC analysis. An ODS column eluted with a gradient from potassium phosphate buffer, pH 5.5 to acetonitrile was employed for these measurements. Detection was at 310-325 nm. […] Parent compounds were typically dissolved in dimethyl sulfoxide, and administered via the tail vein in animals that were briefly anesthetized with halothane.

Another data set concerns the target T1, mouse liver FBPase (Mus musculus, UniProt Q9QXD6).
T1 construct: This partially purified fraction was used for enzyme assays; from tissue; host or cells: mouse liver, 45-75% ammonium sulfate fraction
T1 sequence (Q9QXD6 2-338 limits assumed): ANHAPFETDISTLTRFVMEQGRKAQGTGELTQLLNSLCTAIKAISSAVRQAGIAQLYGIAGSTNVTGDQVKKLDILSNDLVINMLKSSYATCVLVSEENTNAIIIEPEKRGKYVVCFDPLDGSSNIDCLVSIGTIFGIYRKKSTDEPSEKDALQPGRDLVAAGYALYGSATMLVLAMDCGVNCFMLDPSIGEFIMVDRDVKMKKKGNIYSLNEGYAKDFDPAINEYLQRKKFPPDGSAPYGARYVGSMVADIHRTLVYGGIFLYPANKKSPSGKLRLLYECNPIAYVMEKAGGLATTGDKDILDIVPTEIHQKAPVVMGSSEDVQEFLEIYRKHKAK
Briefly: Inhibition of mouse liver FBPase. It counts as biochemical. The following applies: partially purified mouse liver fraction. As for the experimental part:
Enzymatic activity was measured spectrophotometrically in reactions that coupled the formation of product (fructose 6-phosphate) to the reduction of dimethylthiazoldiphenyltetrazolium bromide (MTT) via NADP and phenazine methosulfate (PMS), using phosphoglucose isomerase and glucose 6-phosphate dehydrogenase as the coupling enzymes. Reaction mixtures (200 μl) were made up in 96-well microtitre plates, and consisted of 50 mM Tris-HCl, pH 7.4, 100 mM KCl, 5 mM EGTA, 2 mM MgCl2, 0.2 mM NADP, 1 mg/ml BSA, 1 mM MTT, 0.6 mM PMS, 1 unit/mL phosphoglucose isomerase, 2 units/mL glucose 6-phosphate dehydrogenase, and 0.150 mM substrate (fructose 1,6-bisphosphate). Inhibitor concentrations were varied from 0.01 μM to 10 μM.
Mouse liver FBPase was obtained by homogenizing freshly isolated mouse liver in 100 mM Tris-HCl buffer, pH 7.4, containing 1 mM EGTA, and 10% glycerol. […] This fraction was redissolved in the homogenization buffer and desalted on a PD-10 gel filtration column (Biorad) eluted with same. This partially purified fraction was used for enzyme assays. Both rat liver and mouse liver FBPase were assayed as described for human liver FBPase.

The target of a further data set is T2, human liver FBPase (Homo sapiens, UniProt P09467).
T2 construct: made in house; host or cells: E. coli BL21
T2 sequence (P09467 2-338 limits assumed): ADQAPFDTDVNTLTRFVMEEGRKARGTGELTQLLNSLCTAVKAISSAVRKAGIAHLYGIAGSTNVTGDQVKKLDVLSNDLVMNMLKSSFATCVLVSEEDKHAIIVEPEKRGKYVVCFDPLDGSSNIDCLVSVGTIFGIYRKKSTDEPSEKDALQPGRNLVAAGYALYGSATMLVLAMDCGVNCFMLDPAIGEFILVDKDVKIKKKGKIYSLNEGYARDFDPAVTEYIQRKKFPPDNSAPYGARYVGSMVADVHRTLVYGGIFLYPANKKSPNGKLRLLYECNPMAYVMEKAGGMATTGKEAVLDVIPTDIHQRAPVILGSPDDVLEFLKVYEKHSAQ
Briefly: Inhibition of human liver FBPase. As to conditions: for inhibition of human liver FBPase activity (FIG. 2): result in words. It counts as biochemical.

In another data set the test system is rat hepatocytes. The data set can be described thus: Inhibition of gluconeogenesis in rat hepatocytes. It counts as cell-based. On the procedure:
Hepatocytes were prepared from overnight fasted Sprague-Dawley rats (250-300 g) according to the procedure of Berry and Friend (Berry, M. N., Friend, D. S., 1969, J. Cell. Biol. 43, 506-520) as modified by Groen (Groen, A. K., Sips, H. J., Vervoorn, R. C., Tager, J. M., 1982, Eur. J. Biochem. 122, 87-93). Hepatocytes (75 mg wet weight/mL) were incubated in 1 ml Krebs-bicarbonate buffer containing 10 mM Lactate, 1 mM pyruvate, 1 mg/mL BSA, and test compound concentrations from 1 to 500 μM. Incubations were carried out in a 95% oxygen, 5% carbon dioxide atmosphere in closed, 50-mL Falcon tubes submerged in a rapidly shaking water bath (37° C.). After 1 hour, an aliquot (0.25 mL) was removed, transferred to an Eppendorf tube and centrifuged. 50 μL of supernatant was then assayed for glucose content using a Sigma Glucose Oxidase kit as per the manufacturer's instructions.

Data set [2] concerns fasted Sprague Dawley rats. The data set can be described thus: Blood glucose lowering in fasted rats. It counts as in vivo, rat. As to conditions: 20 mg/kg intraperitoneally, 18 hours fasted Sprague Dawley rats, one hour post injection. As for the experimental part:
Sprague Dawley rats (250-300 g) were fasted for 18 hours and then dosed intraperitoneally with 20 mg/kg of compounds 12.53, 12.61, or 12.64. The vehicle used for drug administration was 50 mM sodium bicarbonate. Blood samples were obtained from the tail vein of conscious animals just prior to injection and one hour post injection. Blood glucose was measured using a HemoCue Inc. glucose analyzer according to the instructions of the manufacturer.

In the next data set the target is T3, hlFBPase (Homo sapiens, UniProt P09467).
T3 construct: made in house; host or cells: E. coli BL21
T3 sequence (P09467 2-338 limits assumed): T2 sequence (P09467 2-338 limits assumed)
The data set can be described thus: AMP site binding (displacement of radiolabeled AMP). As for the experimental part:
To determine whether compounds bind to the allosteric AMP binding site of hlFBPase, the enzyme was incubated with radiolabeled AMP in the presence of a range of test compound concentrations. The reaction mixtures consisted of […] ^3H-AMP (54 mCi/mmol) and […] test compound in 25 mM Tris-HCl, pH 7.4, 100 mM KCl and 1 mM MgCl2. 1.45 mg of homogeneous FBPase (±1 nmole) was added last. After a 1 minute incubation, AMP bound to FBPase was separated from unbound AMP by means of a centrifugal ultrafiltration unit (“Ultrafree-MC”, Millipore) used according to the instructions of the manufacturer. The radioactivity in aliquots (100 μL) of the upper compartment of the unit (the retentate, which contrains enzyme and label) and the lower compartment (the filtrate, which contains unbound label) were quantified using a Beckman liquid scintillation counter. The amount of AMP bound to the enzyme was estimated by comparing the counts in the filtrate (the unbound label) to the total counts in the retentate.

Procedure for human liver FBPase: Enzymatic activity was measured spectrophotometrically in reactions that coupled the formation of product (fructose 6-phosphate) to the reduction of dimethylthiazoldiphenyltetrazolium bromide (MTT) via NADP and phenazine methosulfate (PMS), using phosphoglucose isomerase and glucose 6-phosphate dehydrogenase as the coupling enzymes. Reaction mixtures (200 μl) were made up in 96-well microtitre plates, and consisted of 50 mM Tris-HCl, pH 7.4, 100 mM KCl, 5 mM EGTA, 2 mM MgCl2, 0.2 mM NADP, 1 mg/ml BSA, 1 mM MTT, 0.6 mM PMS, 1 unit/mL phosphoglucose isomerase, 2 units/mL glucose 6-phosphate dehydrogenase, and 0.150 mM substrate (fructose 1,6-bisphosphate). Inhibitor concentrations were varied from 0.01 μM to 10 μM. Reactions were started by the addition of 0.002 units of pure hlFBPase and were monitored for 7 minutes at 590 nm in a Molecular Devices Plate Reader (37° C.).

On to “4-Amino-5-fluoro-7-bromo-1-isobutyl-2-(1-methoxymethyl-3-bispivaloyloxymethylphosphonate)benzimidazole [Compound 18.7]”, for which the “% Oral bioavailability” value in data set [1] is recorded as 6.9%.

`CCc1ccc2c(nc(-c3ccc(P(=O)(O)O)o3)n2CC(C)C)c1N` [Compound 12.52, 4-Amino-5-ethyl-1-isobutyl-2-(2-phosphono-5-furanyl)benzimidazole] showed a melting point of 220 to 225 °C. Also, the IC50 on mouse liver FBPase is 0.78 µM. On human liver FBPase, the “inhibition of human liver FBPase activity (FIG. 2)” value is on record as “inhibit human liver FBPase activity in vitro in a dose dependent manner”. `CC(C)Cn1c(-c2ccc(P(=O)(O)O)o2)nc2c(N)c(F)ccc21` [Compound 12.53, 4-Amino-5-fluoro-1-isobutyl-2-(2-phosphono-5-furanyl)benzimidazole] came in with a melting point of 230 to 235 °C. The same compound had a concentration for half-maximal inhibition (IC50) with rat hepatocytes (Hepatocyte, glucose production from lactate/pyruvate, isolated rat hepatocytes, 1 hour) of 2.4 µM. For the same compound, in the data set on rat hepatocytes (result in words), the “inhibition of glucose production in rat hepatocytes (FIG. 4)” value is listed as “inhibit glucose production in vitro in rat hepatocytes”. Also, in data set [2], the blood glucose lowering was determined as 55±14%. On human liver FBPase, the “inhibition of human liver FBPase activity (FIG. 2)” value is reported as “inhibit human liver FBPase activity in vitro in a dose dependent manner”. For the compound `CC(C)Cn1c(-c2ccc(P3(=O)OCC(CO)CO3)o2)nc2ccc(Cl)cc21` (stereo not shown) [Compound 31.13, 6-Chloro-1-isobutyl-2-{5-[2-(hydroxymethyl)-propan-1,3-yl]phosphono-2-furanyl}benzimidazole], in data set [1], the “% Oral bioavailability” value is on record as 10.9%. For `CC(=O)OCC1COP(=O)(c2ccc(-c3nc4ccc(Cl)cc4n3CC(C)C)o2)OC1` (stereo not shown) [Compound 31.14, 6-Chloro-1-isobutyl-2-{5-[2-(acetoxymethyl)-propan-1,3-yl]phosphono-2-furanyl}benzimidazole], the “% Oral bioavailability” value in data set [1] was 12.5%. With `COC(=O)OCC1COP(=O)(c2ccc(-c3nc4ccc(Cl)cc4n3CC(C)C)o2)OC1` (stereo not shown) [Compound 31.15, 6-Chloro-1-isobutyl-2-{5-[2-(methoxycarbonyloxymethyl)-propan-1,3-yl]phosphono-2-furanyl}benzimidazole], in data set [1], the “% Oral bioavailability” value is 14.1%. Turning to `CC(C)C(=O)OCOP(=O)(OCOC(=O)C(C)C)c1ccc(-c2nc3c(N)ncnc3n2CC(C)(C)C)o1` [Compound A], the “oral bioavailability (calculated 6.2/76.8)” value in data set [1] (oral approximately 20 mg/kg) is listed as “approximately 8%”. Also, the “% of oral dose recovered in urine” value in data set [1] (oral approximately 20 mg/kg, parent compound in 24 hour urine) is on record as 6.2%. On to `CC(C)(C)Cn1c(-c2ccc(P(=O)(O)O)o2)nc2c(N)ncnc21` [Compound B], for which, in data set [1] (intravenous approximately 10 mg/kg, 24 hour urine), the “% of intravenous dose recovered in urine” value was 76.8%.

In the case of `CC(C)(C)Cn1c(-c2ccc(P(=O)(OCOC(=O)C(C)(C)C)OCOC(=O)C(C)(C)C)o2)nc2c(N)ncnc21` [Compound C], the “% Oral bioavailability” value in data set [1] is 5.3%. As to `NC(=O)c1ncn([C@@H]2O[C@H](COP(=O)(O)O)[C@@H](O)[C@H]2O)c1N` [ZMP, 5-aminoimidazole-4-carboxamide riboside monophosphate, reference compound], the EC50 on hlFBPase (displacement of 3H-AMP from hlFBPase, read-out: ED50 for AMP displacement) came out at 250 µM. In addition, the “displacement of AMP from human liver FBPase (FIG. 3)” value on hlFBPase (result in words) is “displaced AMP from human liver FBPase in a dose dependent manner”. Moreover, the IC50 at human liver FBPase (values in text, read-out: hlFBPase IC50) was determined as 12 µM.
